Reference: patent publication US12582645B2, “Chemokine CXCR4 receptor modulators and uses related thereto” (Emory University, priority 2017, dated 2026)

molecular target: T1, CXCR4 (Homo sapiens, UniProt P61073); assay: CXCR4-CEM calcium flux assay, antagonist mode (inhibition of SDF-1α-induced calcium flux); format: cell-based; conditions: CCRF-CEM cells expressing endogenous CXCR4, stimulated with 4 nM SDF-1α, read-out: CXCR4 Ca^2+ Flux IC50
T1 construct: Human T lymphoblast cells (CCRF-CEM) expressing endogenous CXCR4 receptors; endogenous in cells; host or cells: CCRF-CEM (human T lymphoblast cells)
Method: CXCR4-CEM Calcium Flux Assays
Exemplary compounds of the invention were tested for their ability to induce or inhibit calcium flux in CCRF-CEM cells, a human cell line that endogenously expresses CXCR4. Activation of CXCR4 stimulates G protein signaling which, in CCRF-CEM cells, causes a series of downstream events that leads to the release of intracellular calcium stores, or calcium flux. Calcium ion concentrations can be easily measured using a wide variety of […] calcium indicators and, as a result, calcium flux assays are commonly employed methods for measuring G protein-coupled receptor (GPCR) activity. Because the therapeutic potential of CXCR4 antagonists as anti-cancer agents likely relies on their ability to inhibit CXCR4-mediated G protein signaling, this assay was utilized as a first-pass measure of inhibitor potency.
The cells were then equilibrated to room temperature for 30 minutes before assay. […] For “antagonist mode” assessment, the cells are subsequently incubated for 25 minutes at room temperature. SDF-1α (R&D System Cat #350-NS/CF) was then added at a final concentration of 4 nM to stimulate the cells. Inhibition of SDF-1α-induced calcium flux was monitored by FDSS6000 for 90 seconds.
After correcting for background, EC50 values were determined. […] Inhibition data for the test compound over a range of concentrations was plotted as percentage inhibition of the test compound as compared to an internal control compound.

T1 sequence (P61073 whole entry): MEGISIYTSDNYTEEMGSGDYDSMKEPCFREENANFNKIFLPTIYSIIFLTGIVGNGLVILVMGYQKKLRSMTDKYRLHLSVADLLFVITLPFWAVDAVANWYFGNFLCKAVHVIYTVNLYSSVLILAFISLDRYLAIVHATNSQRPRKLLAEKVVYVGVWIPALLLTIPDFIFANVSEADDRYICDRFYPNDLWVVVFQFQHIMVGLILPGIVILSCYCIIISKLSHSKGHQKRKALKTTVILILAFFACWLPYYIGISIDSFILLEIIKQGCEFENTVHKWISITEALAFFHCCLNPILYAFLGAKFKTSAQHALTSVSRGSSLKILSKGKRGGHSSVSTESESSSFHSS

| SMILES | IC50 [nM] |
| --- | --- |
| CN1CCN(c2ccccc2CN2CCNC(CN(C)[C@H]3CCCc4cccnc43)C2)CC1 (stereo partly drawn) [EMU070, (8S)—N-methyl-N-((4-(2 (4-methylpiperazin-1-yl)benzyl)piperazin-2-yl)methyl)-5,6,7,8-tetrahydroquinolin-8-amine] | 6270 |
| N[C@H]1CC[C@H](CN(C[C@H]2Cc3ccccc3CN2)[C@H]2CCCc3cccnc32)CC1 [EMU074] | 284 |
| CC(C)(CCN)CN(C[C@H]1Cc2ccccc2CN1)[C@H]1CCCc2cccnc21 [EMU075] | > 33300 |
| CN(C[C@H]1Cc2c(cccc2N[C@H]2CC[C@H](N)CC2)CN1)[C@H]1CCCc2cccnc21 [EMU089] | 755 |
| CN1CCN(c2cccc3c2CC(CN(C)[C@H]2CCCc4cccnc42)N(C)C3)CC1 (stereo partly drawn) [EMU090] | 171 |
| Cc1nc(CN(CCCCN)C[C@H]2Cc3ccccc3CN2)cs1 [EMU110, (R)—N1-((2-methylthiazol-4-yl)methyl)-N1-((1,2,3,4-tetrahydroisoquinolin-3-yl)methyl)butane-1,4-diamine] | > 33300 |
| NCCCCN(Cc1nccs1)C[C@H]1Cc2ccccc2CN1 [EMU111, (R)—N1-((1,2,3,4-tetrahydroisoquinolin-3-yl)methyl)-N1-(thiazol-2-ylmethyl)butane-1,4-diamine] | > 33300 |
| NC[C@H]1CC[C@H](CN(C[C@H]2Cc3ccccc3CN2)[C@H]2CCCc3cccnc32)CC1 [EMU121] | 343 |
| NCC1=C(CN(C[C@H]2Cc3ccccc3CN2)[C@H]2CCCc3cccnc32)CCCC1 [EMU124] | 227 |
| Cc1cccnc1CN(C)C[C@H]1Cc2c(cccc2N2CCNCC2)CN1 [EMU127, (R)—N-methyl-1-(3-methylpyridin-2-yl)-N-((5-(piperazin-1-yl)-1,2,3,4-tetrahydroisoquinolin-3-yl)methyl)methanamine] | 91.2 |
| Cc1ccc(CN(C)C[C@H]2Cc3c(cccc3N3CCNCC3)CN2)nc1 [EMU130, (R)—N-methyl-1-(5-methylpyridin-2-yl)-N-((5-(piperazin-1-yl)-1,2,3,4-tetrahydroisoquinolin-3-yl)methyl)methanamine] | 510 |
| CN(C[C@H]1Cc2c(cccc2N2CCNC(C)(C)C2)CN1)[C@H]1CCCc2cccnc21 [EMU136] | 33.9 |
| C/C(CN)=C(\F)CN(CC1Cc2ccccc2CN1)[C@H]1CCCc2cccnc21 (stereo partly drawn) [EMU140] | 28.3 |
| FC1(F)CCC(NC/C=C\CN(C[C@H]2Cc3ccccc3CN2)[C@H]2CCCc3cccnc32)CC1 [EMU143] | 98 |
| Cc1ccc(CN(CCCN2CCNCC2)C[C@H]2Cc3ccccc3CN2)nc1 [EMU148, (R)—N-((5-methylpyridin-2-yl)methyl)-3-(piperazin-1-yl)-N-((1,2,3,4-tetrahydroisoquinolin-3-yl)methyl)propan-1-amine] | 3100 |
| CC1(C)CCC(NC/C=C/CN(C[C@H]2Cc3ccccc3CN2)[C@H]2CCCc3cccnc32)CC1 [EMU153, (E)-N1-(4,4-dimethylcyclohexyl)-N4-(((R)-1,2,3,4-tetrahydroisoquinolin-3-yl)methyl)-N4-((S)-5,6,7,8-tetrahydroquinolin-8-yl)but-2-ene-1,4-diamine] | 64.6 |
| FC1(F)CCC(NC/C=C/CN(C[C@H]2Cc3ccccc3CN2)[C@H]2CCCc3cccnc32)CC1 [EMU154, (E)-N1-(4,4-difluorocyclohexyl)-N4-(((R)-1,2,3,4-tetrahydroisoquinolin-3-yl)methyl)-N4-((S)-5,6,7,8-tetrahydroquinolin-8-yl)but-2-ene-1,4-diamine] | 82.1 |
| C(=C\CN(C[C@H]1Cc2ccccc2CN1)[C@H]1CCCc2cccnc21)/CNC1CCOCC1 [EMU155, (E)-N1-(tetrahydro-2H-pyran-4-yl)-N4-(((R)-1,2,3,4-tetrahydroisoquinolin-3-yl)methyl)-N4-((S)-5,6,7,8-tetrahydroquinolin-8-yl)but-2-ene-1,4-diamine] | 15.5 |
| CN(C[C@H]1Cc2c(cccc2N2CCN3CCC[C@H]3C2)CN1)[C@H]1CCCc2cccnc21 [EMU160] | 2.92 |
| Cc1cccnc1CN(CCCN1CCNCC1)C[C@H]1Cc2c(cccc2N2CCNCC2)CN1 [EMU164, (R)—N-((3-methylpyridin-2-yl)methyl)-3-(piperazin-1-yl)-N-((5-(piperazin-1-yl)-1,2,3,4-tetrahydroisoquinolin-3-yl)methyl)propan-1-amine] | 33.7 |
| Cc1ccc(CN(CCCCN)C[C@H]2Cc3c(cccc3N3CCNCC3)CN2)nc1 [EMU165, (R)—N1-((5-methylpyridin-2-yl)methyl)-N1-((5-(piperazin-1-yl)-1,2,3,4-tetrahydroisoquinolin-3-yl)methyl)butane-1,4-diamine] | 115 |
| Cc1cccnc1CN(CCCCN)C[C@H]1Cc2c(cccc2N2CCNCC2)CN1 [EMU166, (R)—N1-((3-methylpyridin-2-yl)methyl)-N1-((5-(piperazin-1-yl)-1,2,3,4-tetrahydroisoquinolin-3-yl)methyl)butane-1,4-diamine] | 9.88 |
| CN(C[C@H]1Cc2c(cccc2NCCN2CCOCC2)CN1)[C@H]1CCCc2cccnc21 [EMU173, (S)—N-methyl-N—(((R)-5-((2-morpholinoethyl)amino)-1,2,3,4-tetrahydroisoquinolin-3-yl)methyl)-5,6,7,8-tetrahydroquinolin-8-amine] | 21.5 |
| C/C(=C/CN(C[C@H]1Cc2ccccc2CN1)[C@H]1CCCc2cccnc21)CN [EMU177] | 13.2 |
| C(=C\CN(C[C@H]1Cc2ccccc2CN1)[C@H]1CCCc2cccnc21)/CNCC1CCOCC1 [EMU180, (E)-N1-((tetrahydro-2H-pyran-4-yl)methyl)-N4-(((R)-1,2,3,4-tetrahydroisoquinolin-3-yl)methyl)-N4-((S)-5,6,7,8-tetrahydroquinolin-8-yl)but-2-ene-1,4-diamine] | 24.2 |
| CC1(C)CCC(NCc2ccc(CN(C[C@H]3Cc4ccccc4CN3)[C@H]3CCCc4cccnc43)cc2)CC1 [EMU181, (S)—N-(4-(((4,4-dimethylcyclohexyl)amino)methyl)benzyl)-N—(((R)-1,2,3,4-tetrahydroisoquinolin-3-yl)methyl)-5,6,7,8-tetrahydroquinolin-8-amine] | 661 |
| FC1(F)CCC(NCc2ccc(CN(C[C@H]3Cc4ccccc4CN3)[C@H]3CCCc4cccnc43)cc2)CC1 [EMU182, (S)—N-(4-(((4,4-difluorocyclohexyl)amino)methyl)benzyl)-N—(((R)-1,2,3,4-tetrahydroisoquinolin-3-yl)methyl)-5,6,7,8-tetrahydroquinolin-8-amine] | 143 |
| CN(C[C@H]1Cc2c(cccc2N2CCN(C3COC3)CC2)CN1)[C@H]1CCCc2cccnc21 [EMU183] | 380 |

The next lines start with the values.

| IC50 [nM] | SMILES |
| --- | --- |
| 1100 | C[C@@H](c1ccccn1)N(C[C@H]1Cc2ccccc2CN1)C[C@H]1Cc2ccccc2CN1 [EMU065, (S)-1-(pyridin-2-yl)-N,N-bis(((R)-1,2,3,4-tetrahydroisoquinolin-3-yl)methyl)ethanamine] |
| 292 | NCc1cccc(CN(C[C@H]2Cc3ccccc3CN2)[C@H]2CCCc3cccnc32)c1 [EMU094, (S)—N-(3-(aminomethyl)benzyl)-N—(((R)-1,2,3,4-tetrahydroisoquinolin-3-yl)methyl)-5,6,7,8-tetrahydroquinolin-8-amine] |
| ~16600 | NCCCCN(Cc1cscn1)C[C@H]1Cc2ccccc2CN1 [EMU104, (R)—N1-((1,2,3,4-tetrahydroisoquinolin-3-yl)methyl)-N1-(thiazol-4-ylmethyl)butane-1,4-diamine] |
| 21.4 | Cc1cnc(CN(C)C[C@H]2Cc3c(cccc3N3CCNCC3)CN2)c(C)c1 [EMU107, (R)-1-(3,5-dimethylpyridin-2-yl)-N-methyl-N-((5-(piperazin-1-yl)-1,2,3,4-tetrahydroisoquinolin-3-yl)methyl)methanamine] |
| 29.6 | CN1CCN(c2cccc3c2C[C@H](CN(C)[C@H]2CCCc4cccnc42)NC3)CC1 [EMU116] |
| 26.6 | c1cnc2c(c1)CCC[C@@H]2N(CC1CC1)C[C@H]1Cc2c(cccc2N2CCNCC2)CN1 [EMU119] |
| 498 | FC1(F)CCC(CN(C[C@H]2Cc3c(cccc3N3CCNCC3)CN2)[C@H]2CCCc3cccnc32)CC1 [EMU120] |
| 79.9 | C/C(CN(C[C@H]1Cc2ccccc2CN1)[C@H]1CCCc2cccnc21)=C(\F)CN [EMU125] |
| 1880 | C/C(CN(C[C@H]1Cc2ccccc2CN1)[C@H]1CCCc2cccnc21)=C(/F)CN [EMU126] |
| 146 | CN(C[C@H]1Cc2c(cccc2N2C[C@@H]3C[C@H]2CN3)CN1)C1CCCc2cccnc21 (stereo partly drawn) [EMU135] |
| 43.7 | C/C(CN)=C(/F)CN(C[C@H]1Cc2ccccc2CN1)[C@H]1CCCc2cccnc21 [EMU141] |
| 92.1 | Cc1cccnc1CN(CCCN1CCNCC1)C[C@H]1Cc2ccccc2CN1 [EMU149, (R)—N-((3-methylpyridin-2-yl)methyl)-3-(piperazin-1-yl)-N-((1,2,3,4-tetrahydroisoquinolin-3-yl)methyl)propan-1-amine] |
| 364 | CC(C)N(C[C@H]1Cc2c(cccc2N2CCNCC2)CN1)[C@H]1CCCc2cccnc21 [EMU163] |

same assay, conditions: CXCR4 Ca^2+ Flux IC50, CCRF-CEM cells expressing endogenous CXCR4, stimulated with 4 nM SDF-1α

| SMILES | IC50 [nM] |
| --- | --- |
| c1cnc2c(c1)CCC[C@@H]2N(CCCN1CCNCC1)Cc1cc2ccccc2cn1 [EMU168] | 17.3 |
